Results published in ChEMBL document CHEMBL1126840, “Steroidal affinity labels of the estrogen receptor. 1. 17 alpha-(Bromoacetoxy)alkyl/alkynylestradiols” (J Med Chem, 1993).

molecular target: T1, Estrogen receptor (Ovis aries) (UniProt P49885+Q9TU15)

Compared with `C[C@]12CC[C@@H]3c4ccc(O)cc4CC[C@H]3[C@@H]1CC[C@@]2(O)C#CCCOC(=O)CBr`, `C[C@]12CC[C@@H]3c4ccc(O)cc4CC[C@H]3[C@@H]1CC[C@@]2(O)C#CCCCCCCOC(=O)CBr` is higher in RAC app: 0.79 for the first, 1.5 for the second.

First: C[C@]12CC[C@@H]3c4ccc(O)cc4CC[C@H]3[C@@H]1CC[C@@]2(O)C#CCCCCCCO
Second: C[C@]12CC[C@@H]3c4ccc(O)cc4CC[C@H]3[C@@H]1CC[C@@]2(O)C#CCCO
The RAC app of the first is higher: 3.4 for the first, 1 for the second.

First: C[C@]12CC[C@@H]3c4ccc(O)cc4CC[C@H]3[C@@H]1CC[C@@]2(O)CCCOC(=O)CBr
Second: C[C@]12CC[C@@H]3c4ccc(O)cc4CC[C@H]3[C@@H]1CC[C@@]2(O)CCCO
The RAC app of the first is lower: 0.21 for the first, 0.28 for the second.

`C[C@]12CC[C@@H]3c4ccc(O)cc4CC[C@H]3[C@@H]1CC[C@@]2(O)CC1CO1` (stereo in doubt; 6b) gave an RAC app of 0.2.
`C[C@]12CC[C@@H]3c4ccc(O)cc4CC[C@H]3[C@@H]1CC[C@@]2(O)CC1CO1` (stereo in doubt; 6a) gave an RAC app of 1.3.

molecular target: T1, Estrogen receptor (Ovis aries); remark: another data set of the same source

Going from `C[C@]12CC[C@@H]3c4ccc(O)cc4CC[C@H]3[C@@H]1CC[C@@]2(O)C#CCCOC(=O)CBr` to `C[C@]12CC[C@@H]3c4ccc(O)cc4CC[C@H]3[C@@H]1CC[C@@]2(O)C#CCCCCCCOC(=O)CBr`, the RAC app rises from 2 to 2.4.

First: C[C@]12CC[C@@H]3c4ccc(O)cc4CC[C@H]3[C@@H]1CC[C@@]2(O)C#CCCCCCCO
Second: C[C@]12CC[C@@H]3c4ccc(O)cc4CC[C@H]3[C@@H]1CC[C@@]2(O)C#CCCO
The RAC app of the first is higher: 6.5 for the first, 3.9 for the second.

First: C[C@]12CC[C@@H]3c4ccc(O)cc4CC[C@H]3[C@@H]1CC[C@@]2(O)CCCOC(=O)CBr
Second: C[C@]12CC[C@@H]3c4ccc(O)cc4CC[C@H]3[C@@H]1CC[C@@]2(O)CCCO
The RAC app of the first is lower: 0.94 for the first, 1.1 for the second.

For `C[C@]12CC[C@@H]3c4ccc(O)cc4CC[C@H]3[C@@H]1CC[C@@]2(O)CC1CO1` (stereo in doubt; 6b), the RAC app was 3.9.
Work on `C[C@]12CC[C@@H]3c4ccc(O)cc4CC[C@H]3[C@@H]1CC[C@@]2(O)CC1CO1` (stereo in doubt; 6a) yielded an RAC app of 12.

molecular target: T1, Estrogen receptor (Ovis aries); remark: another data set of the same source

First: C[C@]12CC[C@@H]3c4ccc(O)cc4CC[C@H]3[C@@H]1CC[C@@]2(O)C#CCCOC(=O)CBr
Second: C[C@]12CC[C@@H]3c4ccc(O)cc4CC[C@H]3[C@@H]1CC[C@@]2(O)C#CCCCCCCOC(=O)CBr
The RAC app of the first is lower: 0.066 for the first, 0.24 for the second.

First: C[C@]12CC[C@@H]3c4ccc(O)cc4CC[C@H]3[C@@H]1CC[C@@]2(O)C#CCCCCCCO
Second: C[C@]12CC[C@@H]3c4ccc(O)cc4CC[C@H]3[C@@H]1CC[C@@]2(O)C#CCCO
The RAC app of the first is higher: 0.4 for the first, 0.07 for the second.

Compared with `C[C@]12CC[C@@H]3c4ccc(O)cc4CC[C@H]3[C@@H]1CC[C@@]2(O)CCCOC(=O)CBr`, `C[C@]12CC[C@@H]3c4ccc(O)cc4CC[C@H]3[C@@H]1CC[C@@]2(O)CCCO` is higher in RAC app: 0.021 for the first, 0.024 for the second.

`C[C@]12CC[C@@H]3c4ccc(O)cc4CC[C@H]3[C@@H]1CC[C@@]2(O)CC1CO1` (stereo in doubt; 6b) was tested, and the RAC app was < 0.017.
`C[C@]12CC[C@@H]3c4ccc(O)cc4CC[C@H]3[C@@H]1CC[C@@]2(O)CC1CO1` (stereo in doubt; 6a) showed an RAC app of 0.044.
